Test results taken from EP0163537A1, “1-Propanone derivatives and pharmaceutical compositions containing same” (priority 1984, dated 1985).
Where a name gives a salt, the structure may show the parent alone. Read-outs that look alike come from different tables or passages of the source.

Legend:
Assay type in all cases: in vivo
Male mice of ddY strain [1] = assay: Test 3 Muscle relaxant activity (traction test, method of Courvoisier et al.); settings: 15 minutes after administration, groups of ten
Method: Male mice of ddY strain, weighing 30 to 37 g, were used in groups of ten. The test compounds were dissolved in physiological saline and administered intraperitoneally in a dose of 50 or 75 mg/kg. […] This method involves a traction test in which the animal is hung by its forelimbs on a horizontal metal rod (2 mm in diameter) placed 20 cm above the floor and examined as to whether it can put its hindlimb on the rod or not.
Specifically, 15 minutes after administration of a test compound, the mouse was hung on the rod by its forelimbs. […] It had been confirmed in preliminary tests that, under normal conditions, all the mice could put their hindlimb on the rod within 5 seconds.

Male mice of ddY strain [2] = assay: Test 1 Anti-nicotine activity (inhibition of nicotine-induced convulsive death); settings: 200 mg/kg po, nicotine 2 mg/kg iv after 1 h, observed 1 h; for responders at 200 mg/kg: Mus musculus
Method: Male mice of ddY strain, weighing 28 to 33 g, were used in groups of eight or twelve. The test compounds were dissolved in distilled water and administered orally in a dose of 200 mg/kg. After an hour, nicotine was intravenously administered in a dose of 2 mg/kg.

[3] = Test 5 Acute toxicity (LD50, method of Behrens and Kärbar); settings: mouse, in vivo, mice, observed for 7 days
Method: (§1) Male mice of ddY strain, weighing 25 to 30 g, were used in groups of five. The test compounds were dissolved in distilled water and administered orally in various doses. […] Then, the LDso was calculated according to the method of Behrens and Kärbar.

Male mice of ddY strain [4] = assay: Test 2 Anti-tremorine activity (inhibition of tremorine-induced tremor); settings: for responders at 50 mg/kg: Mus musculus, po, read-out: Inhibition of tremor (%)
Method: Male mice of ddY strain, weighing 28 to 32 g, were used in groups of eight or ten. The test compounds were dissolved in distilled water and administered orally in a dose of 50 mg/kg. After 30 minutes, tremorine dihydrochloride was subcutaneously administered in a dose of 20 mg/kg. Then, the occurrence of tremor was observed after the lapse of 30 and 60 minutes.

[5] = system: Male rats of Wistar strain; assay: Test 4 Effect on decerebrate rigidity induced by transection between superior and inferior colliculi
Method: Male rats of Wistar strain, weighing 300 to 400 g, were used. The test compounds were dissolved in physiological saline and administered intravenously in doses of 10 mg/kg and 20 mg/kg.
Rigidity preparations were made according to the method of Fukuda et al. [The Japanese Journal of Pharmacology, 22, 457 (1972)]. Specifically, after a rat was fixed in a prone position under ether anesthesia, an incision was made in the head. The skull was removed around the occipital region to expose the brain. […] More than 2 hours after operation, the rat was mounted in a supine position on a fixing stand. Thus, the effect of the test compounds was evaluated by using the occurrence of rigidity in the antigravity muscles of the limbs as an index.

Male mice of ddY strain [6] = assay: Test 5 Acute toxicity (LD50, method of Behrens and Kärbar); settings: Table-5a, observed for 7 days
Method: as §1

[7] = Table-3d, 50 mg/kg po, After 30 min., 10 animals used
[8] = Table-3d, 50 mg/kg po, After 60 min., 10 animals used
[9] = Table-3a, 50 mg/kg po, After 30 min. from tremorine 20 mg/kg sc, 8 animals used
[10] = Table-3a, 50 mg/kg po, After 60 min. from tremorine 20 mg/kg sc, 8 animals used
[11] = po, 1 h, Table-2c, 12 animals used
[12] = 0.5 h, Table-3d, 50 mg/kg po, After 30 min., 10 animals used
[13] = 1 h, Table-3d, 50 mg/kg po, After 60 min., 10 animals used

CC(CN1CCCC1)C(=O)c1ccc2c(c1)CCO2.Cl (stereo not shown) [Example 92, 1-(2,3-Dihydro-5-benzofuranyl)-2-methyl-3-(1-pyrrolidinyl)-1-propanone hydrochloride]
Number of animals exhibiting muscle relaxation (Male mice of ddY strain [1]; Table-4d, 75 mg/kg ip): 6 | responders at 200 mg/kg (Male mice of ddY strain [2]; Table-2c, 12 animals used): 75% | Number of surviving animals (Male mice of ddY strain [2]; Table-2c, 12 animals used): 9 | LD50 at 168 h ([3]; Table-5c, oral): 685 mg/kg | responders at 50 mg/kg (Male mice of ddY strain [4]; 0.5 h): 100% | responders at 50 mg/kg (Male mice of ddY strain [4]; 1 h): 100% | Number of animals exhibiting no tremor (Male mice of ddY strain [4]; [7]): 10 | Number of animals exhibiting no tremor (Male mice of ddY strain [4]; [8]): 10 | rigidity of the forelimbs and hindlimbs ([5]; 20 mg/kg intravenously): relaxed the rigidity similarly

1-(4-Cyclopropylphenyl)-2-methyl-3-piperidino-1-propanone hydrochloride [Example 1]
Muscle relaxation rate (%) (Male mice of ddY strain [1]; Table-4a, 50 mg/kg ip): 60% | Number of animals exhibiting muscle relaxation (Male mice of ddY strain [1]; Table-4a, 50 mg/kg ip): 6 | Inhibition of death (%) (Male mice of ddY strain [2]; Table-2a, 8 animals used): 100.0% | Number of surviving animals (Male mice of ddY strain [2]; Table-2a, 8 animals used): 8 | Acute toxicity LD50 (mg/kg,po) (Male mice of ddY strain [6]): 535 mg/kg | Inhibition of tremor (%) (Male mice of ddY strain [4]; [9]): 100% | Number of animals exhibiting no tremor (Male mice of ddY strain [4]; [9]): 8 | Inhibition of tremor (%) (Male mice of ddY strain [4]; [10]): 87.5% | Number of animals exhibiting no tremor (Male mice of ddY strain [4]; [10]): 7 | rigidity of the forelimbs and hindlimbs ([5]; 10 mg/kg intravenously): relaxed the rigidity of the forelimbs and hindlimbs to a significant degree

CC(CN1CCCCC1)C(=O)c1ccc2c(c1)CCO2.Cl (stereo not shown) [Example 85, 1-(2,3-Dihydro-5-benzofuranyl)-2-methyl-3-piperidino-1-propanone hydrochloride]
Number of animals exhibiting muscle relaxation (Male mice of ddY strain [1]; Table-4d, 75 mg/kg ip): 8 | responders at 200 mg/kg (Male mice of ddY strain [2]; [11]): 66.7% | Number of surviving animals (Male mice of ddY strain [2]; Table-2c, 12 animals used): 8 | LD50 at 168 h ([3]; po, Table-5c): 625 mg/kg | responders at 50 mg/kg (Male mice of ddY strain [4]; [12]): 100% | responders at 50 mg/kg (Male mice of ddY strain [4]; [13]): 100% | Number of animals exhibiting no tremor (Male mice of ddY strain [4]; [7]): 10 | Number of animals exhibiting no tremor (Male mice of ddY strain [4]; [8]): 10 | rigidity of the forelimbs and hindlimbs ([5]; 20 mg/kg intravenously): relaxed the rigidity similarly

CCC(CN1CCCCC1)C(=O)c1ccc2c(c1)OCO2.Cl (stereo not shown) [Example 53, 2-Ethyl-1-(3,4-methylenedioxyphenyl)-3-piperidino-1-propanone hydrochloride]
responders at 200 mg/kg (Male mice of ddY strain [2]; po, 1 h, Table-2b, 12 animals used): 83.3% | Number of surviving animals (Male mice of ddY strain [2]; Table-2b, 12 animals used): 10 | LD50 at 168 h ([3]; po, Table-5b): 565 mg/kg | rigidity of the forelimbs and hindlimbs ([5]; 20 mg/kg intravenously): relaxed the rigidity similarly

CC(CN1CCCCC1)C(=O)c1ccc2c(c1)OCO2.Cl (stereo not shown) [Example 57, 2-Methyl-1-(3,4-methylenedioxyphenyl)-3-piperidino-1-propanone hydrochloride]
responders at 200 mg/kg (Male mice of ddY strain [2]; Table-2b, 12 animals used): 41.7% | Number of surviving animals (Male mice of ddY strain [2]; Table-2b, 12 animals used): 5 | LD50 at 168 h ([3]; Table-5b, oral): 625 mg/kg | rigidity of the forelimbs and hindlimbs ([5]; 20 mg/kg intravenously): relaxed the rigidity similarly

CC(CN1CCCCCC1)C(=O)c1ccc2c(c1)CCO2.Cl (stereo not shown) [Example 93, 1-(2,3-Dihydro-5-benzofuranyl)-2-methyl-3-(hexahydro-1H-azepin-1-yl)-1-propanone hydrochloride]
Number of animals exhibiting muscle relaxation (Male mice of ddY strain [1]; Table-4d, 75 mg/kg ip): 6 | responders at 200 mg/kg (Male mice of ddY strain [2]; [11]): 58.3% | Number of surviving animals (Male mice of ddY strain [2]; Table-2c, 12 animals used): 7 | LD50 at 168 h ([3]; po, Table-5c): 685 mg/kg | responders at 50 mg/kg (Male mice of ddY strain [4]; [12]): 100% | responders at 50 mg/kg (Male mice of ddY strain [4]; [13]): 100% | Number of animals exhibiting no tremor (Male mice of ddY strain [4]; [7]): 10 | Number of animals exhibiting no tremor (Male mice of ddY strain [4]; [8]): 10 | rigidity of the forelimbs and hindlimbs ([5]; 20 mg/kg intravenously): relaxed the rigidity similarly

CCCC(CN1CCCCC1)C(=O)c1ccc2c(c1)OCO2 (stereo not shown) [Example 66, 1-(3,4-Methylenedioxyphenyl)-2-n-propyl-3-piperi-dino-1-propanone hydrochloride]
responders at 200 mg/kg (Male mice of ddY strain [2]; Table-2b, 12 animals used): 58.3% | Number of surviving animals (Male mice of ddY strain [2]; Table-2b, 12 animals used): 7 | LD50 at 168 h ([3]; Table-5b, oral): 625 mg/kg | rigidity of the forelimbs and hindlimbs ([5]; 20 mg/kg intravenously): relaxed the rigidity similarly
